Reference: patent publication US4619932A, “Novel carbostyril derivatives, process for producing thereof and pharmaceutical composition containing the same” (Otsuka Pharmaceutical Co., Ltd., priority 1980, dated 1986)
Structures can show the parent of a compound that is named as a salt. Where two headings read alike, the source gives them in different places.

Assays:
[1] = tested on: epinephrine; test: Activity for antagonizing epinephrine in mouse; format: in vivo, mouse (male, ddy strain); conditions: read-out: ED50 value, dose allowing half the animals to survive
Protocol: (C) Activity for antagonizing epinephrine in mouse
Individual male mice of ddy strain having 17 to 20 g of body weight were used. The mice were abstained from eating for 24 hours. One test group consist of 10 mice. A compound to be tested was administered orally. One hour after the administration, 40 mg/kg of epinephrine was intraperitonerally administered. […] All of 10 mice administered physiological saline solution as the reference group were dead within a few minutes after the administration of epinephrine. (Cf. Loew, E. R. and Micetich, A., J. Pharmacol. Exp. Ther., 93, 434-443 (1948)).

[2] = tested on: jumping behavior induced by Methamphetamine and L-DOPA; test: Activity for inhibiting jumping behavior in mouse induced by Methamphetamine and L-DOPA; format: in vivo, mouse (male, ddy-strain); conditions: read-out: ED50 value, inhibition of jumping behavior
Protocol: (B) Activity for inhibiting jumping behavior in mouse induced by Methamphetamine and L-DOPA
Individual male mice of ddy-strain having a body weight of 17 to 25 g were used. The mice were not fed for 24 hours. One test group consisted of 6 mice. A compound to be tested was administered orally. 40Minutes after the administration 4 mg/kg of Methamphetamine d-N-α-dimethylphenthylamine was intraperitonerally administered, further 15 minutes after the administration of Methamphetamine, 400 mg/kg of L-DOPA was intraperitonerally administered. 60 Minutes after the administration of L-DOPA, (3-(3,4-dihydroxyphenyl)alanine) the mouse was placed in a glass beaker of 2 liters capacity, and the number of jumping of the mouse was recorded. The activity for inhibiting jumping behavior of the test compound was determined as positive in case of number of jumping performed by the administered mouse counted 10 or less. While, the activity for inhibiting jumping behabior of the test compound was determined as negative in case the number of jumping performed by the administered mouse recorded over 10. The effective dosage (ED50 value: mg/kg) of the test compound which gives 3 mice were positive over 6 mice of one test group was calculated. The number of jumping performed by the mouse being administered with physiological saline solution as the reference was 150 to 200 per hour. (Cf. H. Lal, F. C. Colpaert, P. Laduron: European J. Pharmacol., 30, 113-116 (1975)).

[3] = tested on: male rats; conditions: rat, in vivo, po
Protocol: Each of the following compound of the general formula in the present invention was administered orally to male rats to determine the acute toxicity (LD50 mg/kg).

[4] = tested on: palpebral ptosis; test: Palpebral ptosis test in mouse; format: in vivo, mouse (male, ddy-strain); conditions: 64 mg/kg oral, 1 hour; score 0 (wide open eyes) to 8 (eyes completely closed); mean of 10 mice
Protocol: (D) Activity of palpebral ptosis test in mouse
Individual male mice of ddy-strain having 18 to 20 g of body weight were used. The mice were abstained from eating for 24 hours. One test group consists of 10 mice. […] One hour after the administration, the state of palpebral ptosis of the mouse were observed and evaluated on the basis of the following score system. The mean value was calculated from the scores of 10 mice.
Score Degree of palpebral ptosis
8 Eyes completely closed.

[5] = tested on: Halothane anesthesia; test: Halothane anesthesia increasing activity; format: in vivo, mouse (male, ddy-strain); conditions: 16 mg/kg oral, 1 hour before 4% Halothane for 3 minutes; righting reflex
Protocol: Male mice of ddy-strain a having about 20 g body weight were used. One test group consists of 10 mice. An aqueous Gummi Arabicum suspension of test compound (80 mg of a compound to be tested and 1 g of Gummi Arabicum/100 ml of physiological NaCl solution) was administered orally to each mouse at the dosage of 16 mg of test compound/kg body. One hour after the administration, each mouse was placed in gas respiration chamber (13×13×24 cm) and oxygen gas containing 4% of Halothane (2-brome-2-chloro-1,1,1-trifluoroethane) was flown into the chamber at the velocity of 2/min for 3 minutes. A mouse anaesthetized was taken out from the chamber and the time between the introduction of anesthesia to waking was measured by righting reflex as the index. To mice of control group, 1% Gummi Arabicum aqueous physiological solution was orally administered at the dosage of 0.1 ml/kg body.

[6] = oral, 1 hour before epinephrine 40 mg/kg i.p., survival at 24 hours
[7] = oral, Methamphetamine 4 mg/kg i.p. and L-DOPA 400 mg/kg i.p., positive = 10 or fewer jumps

| SMILES | Acute toxicity (LD50) [3] [mg/kg] | ED50 [1, 6] [mg/kg] | ED50 [2, 7] [mg/kg] | other results |
| --- | --- | --- | --- | --- |
| CN(C)CCCN1c2ccccc2Sc2ccc(Cl)cc21 [Chlorpromazine, 2-chloro-N,N-dimethyl-10H-phenothiazine-10-propanamine, reference compound] |  |  |  | ED50 ([1]; po, 24 h): 10.6 mg/kg; ED50 ([2]; po): 7.6 mg/kg |
| O=C1CCc2cc(C(=O)CCN3CCN(c4ccccc4)CC3)ccc2N1 [Compound 1, 6-[1-Oxo-3-(4-phenyl-1-piperazinyl)propyl]-3,4-dihydrocarbostyril] | 500 | 3.03 | 1.35 | Score obtained (Mean value), degree of palpebral ptosis [4]: 1.67; Time (minutes) between introduction of anesthesia to waking [5]: 13.3 min |
| O=C1CCc2cc(C(=O)CCCN3CCN(c4ccccc4)CC3)ccc2N1 [Compound 2, 6-[1-Oxo-4-(4-phenyl-1-piperazinyl)butyl]-3,4-dihydrocarbostyril.monohydrochloride] | 500 | 4.02 | 1.52 | Score obtained (Mean value), degree of palpebral ptosis [4]: 4.5; Time (minutes) between introduction of anesthesia to waking [5]: 11.5 min |
| CCC(C(=O)c1ccc2[nH]c(=O)ccc2c1)N1CCN(c2cccc(Cl)c2)CC1 (stereo not shown) [Compound 4, 6-{1-Oxo-2-[4-(3-chlorophenyl)-1-piperazinyl]butyl}-carbostyril] |  |  |  | Score obtained (Mean value), degree of palpebral ptosis [4]: 2.33; Time (minutes) between introduction of anesthesia to waking [5]: 9.7 min; ED50 ([2]; po): 4.05 mg/kg |
| O=C1CCc2cc(C(O)CCCN3CCN(c4cccc(Cl)c4)CC3)ccc2N1 (stereo not shown) [Compound 5, 6-{1-Hydroxy-4-[4-(3-chlorophenyl)-1-piperazinyl]butyl}-3,4-dihydrocarbostyril] | 500 |  | 1.95 | Time (minutes) between introduction of anesthesia to waking [5]: 13.0 min |
| Cc1cccc(N2CCN(CCC(O)c3ccc4c(c3)CCC(=O)N4)CC2)c1C (stereo not shown) [Compound 6, 6-{1-Hydroxy-3-[4-(2,3-dimethylphenyl)-1-piperazinyl]-propyl}-3,4-dihydrocarbostryril] | 500 |  |  | Time (minutes) between introduction of anesthesia to waking [5]: 8.2 min |
| O=C1CCc2cc(C(=O)CCN3CCN(c4cccc(Cl)c4)CC3)ccc2N1 [Compound 7, 6-{1-Oxo-3-[4-(3-chlorophenyl)-1-piperazinyl]-propyl}-3,4-dihydrocarbostyril.monohydrochloride] | 500 |  | 1.34 | Score obtained (Mean value), degree of palpebral ptosis [4]: 1.33 |
| O=C1CCc2cc(C=CCN3CCN(c4cccc(Cl)c4)CC3)ccc2N1 [Compound 8, 6-{3-[4-(3-Chlorophenyl)-1-piperazinyl]-1-propenyl}-3,4-dihydrocarbostyril] | 500 |  | 1.02 |  |
| CCOc1ccccc1N1CCN(CC=Cc2ccc3c(c2)CCC(=O)N3)CC1 [Compound 9, 6-{3-[4-(2-Ethoxyphenyl)-1-piperazinyl]-1-propenyl}-3,4-dihydrocarbostyril] | 500 | 0.005 | 0.12 |  |
| Cc1cccc(N2CCN(CC=Cc3ccc4c(c3)CCC(=O)N4)CC2)c1 [Compound 10, 6-{3-[4-(3-Methylphenyl)-1-piperazinyl]-1-propenyl}-3,4-dihydrocarbostyril] | 500 |  | 6.02 |  |
| O=C1CCc2cc(C=CCCN3CCN(c4ccccc4)CC3)ccc2N1 [Compound 11, 6-[4-(4-Phenyl-1-piperazinyl)-1-butenyl]-3,4-dihydrocarbostyril] | 500 | 4 to 8 | 1.6 |  |
| CCOc1ccccc1N1CCN(CCC=Cc2ccc3c(c2)CCC(=O)N3)CC1 [Compound 12, 6-{4-[4-(2-Ethoxyphenyl)-1-piperazinyl]-1-butenyl}-3,4-dihydrocarbostyril] |  | 0.005 | 0.056 |  |
| O=C1CCc2cc(C=CCN3CCN(c4ccc(Cl)cc4)CC3)ccc2N1 [Compound 13, 6-{3-[4-(4-chlorophenyl)-1-piperazinyl]-1-propenyl}-3,4-dihydrocarbostyril] | 500 |  | 4.16 |  |
| O=C1CCc2cc(CCCCN3CCN(c4ccccc4Cl)CC3)ccc2N1 [Compound 14, 6-{4-[4-(2-Chlorophenyl)-1-piperazinyl]-butyl}-3,4-dihydrocarbostyril] |  |  | 3.23 |  |
| CCOc1ccccc1N1CCN(CCCCc2ccc3c(c2)CCC(=O)N3)CC1 [Compound 15, 6-{4-[4-(2-Ethoxyphenyl)-1-piperazinyl]-butyl}-3,4-dihydrocarbostyril] | 500 | 0.71 | 0.39 |  |
| CCOc1ccccc1N1CCN(CCCc2ccc3c(c2)CCC(=O)N3)CC1 [Compound 16, 6-{3-[4-(2-Ethoxyphenyl)-1-piperazinyl]-propyl}-3,4-dihydrocarbostyril] | 500 | 0.02 | 0.24 |  |
| COc1ccccc1N1CCN(CCCc2ccc3c(c2)CCC(=O)N3)CC1 [Compound 17, 6-{3-[4-(2-Methoxyphenyl)-1-piperazinyl] -propyl}-3,4-dihydrocarbostyril] | 500 | 0.29 |  |  |
| O=C1CCc2cc(CCCN3CCN(c4ccccc4)CC3)ccc2N1 [Compound 18, 6-[3-(4-Phenyl-1-piperazinyl)propyl]-3,4-dihydrocarbostyril] | 500 | 0.21 | 0.34 |  |
| COc1ccccc1N1CCN(CC=Cc2ccc3c(c2)CCC(=O)N3)CC1 [Compound 19] | 500 | 0.1 | 0.79 |  |
| O=C1CCc2cc(C(=O)CCCN3CC=C(c4ccc(Cl)cc4)CC3)ccc2N1 [Compound 25, 6-{1-Oxo-4-[4-(4-chlorophenyl)-1,2,5,6-tetrahydropyridyl]butyl}-3,4-dihydrocarbostiryl] |  |  |  | ED50 ([2]; po): 9.56 mg/kg |
| Cc1ccc(C2=CCN(CCC(=O)c3ccc4c(c3)CCC(=O)N4)CC2)cc1 [Compound 26, 6-{1-Oxo-3-[4-(4-methylphenyl)-1,2,5,6-tetrahydropyridyl]propyl}-3,4-dihydrocarbostiryl] |  |  |  | ED50 ([2]; po): 10.3 mg/kg |
| COc1ccccc1C1=CCN(CC=Cc2ccc3c(c2)CCC(=O)N3)CC1 [Compound 27, 6-{3-[4-(2-Methoxyphenyl)-1,2,5,6-tetrahydropyridyl]-1-propenyl}-3,4-dihydrocarbostyril monooxalate] |  |  |  | ED50 ([2]; po): 1.25 mg/kg |
| O=C1CCc2cc(C(=O)CCCN3CC=C(c4ccccc4)CC3)ccc2N1 [Compound 28, 6-[1-Oxo-4-(4-phenyl-1,2,5,6-tetrahydropyridyl)butyl]-3,4-dihydrocarbostyril] |  |  |  | ED50 ([2]; po): 8.89 mg/kg |
| COc1ccccc1C1CCN(CCCc2ccc3c(c2)CCC(=O)N3)CC1.O=C(O)C(=O)O [Compound 29, 6-{3-[4-(2-Methoxyphenyl)-1-piperidyl]-propyl}-3,4-dihydrocarbostyril monooxalate] |  |  | 2.01 |  |
| O=c1ccc2cc(CCCCN3CCN(c4ccccc4)CC3)ccc2[nH]1 [Compound 30, 6-[4-(4-Phenyl-1-piperazinyl)butyl]-carbostyril] | 500 |  | 0.56 |  |
| CCOc1ccccc1N1CCN(CCC=Cc2ccc3[nH]c(=O)ccc3c2)CC1 [Compound 31, 6-{4-[4-(2-Ethoxyphenyl)-1-piperazinyl]-1-butenyl}carbostyril] |  |  | 0.14 |  |
| CCC(C(O)c1ccc2[nH]c(=O)ccc2c1)N1CCN(c2cccc(Cl)c2)CC1 (stereo not shown) [Compound 32, 6-{1-Hydroxy-2-[4-(3-chlorophenyl)-1-piperazinyl]butyl}carbostyril] |  |  | 4.86 |  |
